Experimental data published in PubChem BioAssay AID1033 (Sanford-Burnham Center for Chemical Genomics, 2008).
Activity calls are given as the source filed them. No rule for the calls is given here.

Each compound was assayed against Chaperone protein DnaK (Escherichia coli (strain K12)) (UniProt P0A6Y8) (assay: E. coli DnaK SBD ligand binding – biophysical, NMR, chaperone (AID 1033)). Settings: Purified DnaK SBD.
Sequence of Chaperone protein DnaK (Escherichia coli (strain K12)) (P0A6Y8 whole entry, looked up): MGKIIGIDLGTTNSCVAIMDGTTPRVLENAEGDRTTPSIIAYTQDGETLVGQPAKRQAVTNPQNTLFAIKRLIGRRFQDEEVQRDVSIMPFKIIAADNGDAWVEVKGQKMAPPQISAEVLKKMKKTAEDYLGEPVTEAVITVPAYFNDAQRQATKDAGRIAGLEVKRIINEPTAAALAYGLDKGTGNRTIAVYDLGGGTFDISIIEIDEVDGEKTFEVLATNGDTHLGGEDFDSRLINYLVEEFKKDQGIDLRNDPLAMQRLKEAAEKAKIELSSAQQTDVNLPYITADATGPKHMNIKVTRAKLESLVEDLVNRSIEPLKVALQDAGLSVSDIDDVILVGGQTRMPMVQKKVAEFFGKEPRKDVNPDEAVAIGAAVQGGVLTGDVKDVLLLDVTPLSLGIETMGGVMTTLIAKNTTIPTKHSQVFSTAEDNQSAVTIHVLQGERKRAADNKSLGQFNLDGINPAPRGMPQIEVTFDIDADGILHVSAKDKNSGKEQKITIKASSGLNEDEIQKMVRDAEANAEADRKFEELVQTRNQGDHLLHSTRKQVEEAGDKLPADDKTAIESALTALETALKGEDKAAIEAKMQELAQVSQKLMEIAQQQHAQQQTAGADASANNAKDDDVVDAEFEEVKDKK

Row | SMILES | Kd
1 | CC(=O)Oc1c(C)c(C)c2c(c1C)CCC(C)(CCCC(C)CCCC(C)CCCC(C)C)O2 (centres undefined) | > 4 mM (inactive)
2 | Clc1ncc2[nH]cnc2n1 | > 4 mM (inactive)
3 | COc1nc(-c2ccccc2)ccc1-c1noc(C)n1 | > 4 mM (inactive)
4 | CCOc1cccc(C(=O)c2ccc(O)c(O)c2O)c1 | > 4 mM (inactive)
5 | NCc1nnnn1-c1ccccc1 | > 4 mM (inactive)
6 | C[C@H]1[C@H](C)CC[C@]2(CO)CC[C@]3(C)C(=CCC4[C@@]5(C)CC[C@H](O)C(C)(C)C5CC[C@]43C)[C@H]12 (some centres undefined) | > 4 mM (inactive)
7 | Cc1sc2nc[nH]c(=S)c2c1C | > 4 mM (inactive)
8 | COC(=O)C1CSCC1=O (centres undefined) | > 4 mM (inactive)
9 | O=C(O)c1ccc(-c2ccccn2)s1 | > 4 mM (inactive)
10 | CC(=O)N1CCN(S(=O)(=O)c2ccccc2)CC1 | > 4 mM (inactive)
11 | CC[C@@]1(O)C[C@H](O)c2c(cc3c(c2O)C(=O)c2c(O)ccc(O)c2C3=O)[C@H]1C(=O)OC | > 4 mM (inactive)
12 | O=C(Nc1ccc2c(c1)OCO2)c1cccs1 | > 4 mM (inactive)
13 | CN1CC(=O)N=C1N | > 4 mM (inactive)
14 | CCC(=O)n1nc(-c2ccco2)nc1N | > 4 mM (inactive)
15 | Cc1n[nH]c(C)c1N | > 4 mM (inactive)
16 | O=C1CC(NCc2ccco2)C(=O)NN1 (centres undefined) | > 4 mM (inactive)
17 | CC12CCC3C(CC3(C)C)C(C)(CCC1=O)O2 (centres undefined) | > 4 mM (inactive)
18 | COc1ccc([C@H]2Oc3c(I)c(OC)cc(OC)c3C[C@@H]2O)cc1OC | > 4 mM (inactive)
19 | NC1CCN(Cc2ccccc2)CC1 | > 4 mM (inactive)
20 | CN1CCC(NC(=O)c2cccnc2)CC1 | > 4 mM (inactive)

Row | SMILES | Kd
21 | Cc1noc(C)c1C(=O)N1CCC(Cc2ccccc2)CC1 | > 4 mM (inactive)
22 | O=C(Cc1c(F)cccc1Cl)Nc1cccnc1 | > 4 mM (inactive)
23 | Cc1cc(C(=O)N2CCN(c3ccccn3)CC2)c(C)o1 | > 4 mM (inactive)
24 | COC(=O)CSc1nnc(-c2ccc(C(=O)O)cc2)o1 | > 4 mM (inactive)
25 | COc1ccc(Cc2nnc3c4cnn(C)c4ncn23)cc1 | > 4 mM (inactive)
26 | OC/C=C/c1ccc(O)c(O)c1 | > 4 mM (inactive)
27 | COc1ccc2[nH]cc(CCN(C)C)c2c1 | > 4 mM (inactive)
28 | CC(=O)Nc1nc(C)nc(-c2ccccc2)c1C(C)=O | > 4 mM (inactive)
29 | NC(=O)Cc1nc(-c2ccccc2)cs1 | > 4 mM (inactive)
30 | NCc1ccc2sccc2c1 | > 4 mM (inactive)
31 | Cc1cccc(NC(=O)Nc2cc(C)on2)c1 | > 4 mM (inactive)
32 | O=C(O)C1(O)C[C@@H](O)C(O)[C@H](O)C1 (some centres undefined) | > 4 mM (inactive)
33 | N=Nc1c(O)[nH]c2ccccc12 | > 4 mM (inactive)
34 | Nc1nc2ncc(=O)[nH]c2c(=O)[nH]1 | > 4 mM (inactive)
35 | COc1ccc(-c2coc3cc(O)ccc3c2=O)cc1 | > 4 mM (inactive)
36 | CCOC(=O)C1CCC(=O)c2cccn21 (centres undefined) | > 4 mM (inactive)
37 | OC1CCNC2CCCCC12 (centres undefined) | > 4 mM (inactive)
38 | N#Cc1cccc(Cn2nnc(-c3ccccc3)n2)c1 | > 4 mM (inactive)
39 | CCCCCC1C(=O)CCC1CC(=O)O (centres undefined) | > 4 mM (inactive)
40 | Cc1ccc(SCc2nc(-c3cccnc3)no2)cc1 | > 4 mM (inactive)

Row | SMILES | Kd
41 | CC(=O)O[C@@H]1CC2C(C)(C)[C@H](O)CC[C@]2(C)C2CC[C@@]3(C)[C@H](c4ccoc4)OC(=O)C4OC43[C@@]21C (some centres undefined) | > 4 mM (inactive)
42 | O=C1C(=O)N(CN2CCN(CCO)CC2)c2ccccc21 | > 4 mM (inactive)
43 | Cc1ccc(S(=O)(=O)CC(=O)N2CCCC2)cc1 | > 4 mM (inactive)
44 | CC(=O)c1c(C)nc(-c2ccc(Cl)cc2Cl)n1O | > 4 mM (inactive)
45 | COc1ccc2c(c1)OC[C@@H](Cc1ccc(OC)c(OC)c1)[C@H]2O | > 4 mM (inactive)
46 | COc1cc(O)c2c(=O)cc(-c3ccc(OC)c(-c4c(O)cc(O)c5c(=O)cc(-c6ccc(O)cc6)oc45)c3)oc2c1 | > 4 mM (inactive)
47 | Nc1cccc(C(=O)Nc2ccc(N)cc2Cl)c1 | > 4 mM (inactive)
48 | Cn1c(=O)cc(O)c2ccccc21 | > 4 mM (inactive)
49 | Cc1ccc(NC(=O)CN2C(=O)CSC2=O)cc1 | > 4 mM (inactive)
50 | O=C(O)c1cc(O)c2c(c1)[C@@H]([C@H]1c3cc(C(=O)O)cc(O)c3C(=O)c3c(O[C@H]4O[C@H](CO)[C@@H](O)[C@H](O)[C@H]4O)cccc31)c1cccc(O[C@H]3O[C@H](CO)[C@@H](O)[C@H](O)[C@H]3O)c1C2=O | > 4 mM (inactive)
51 | Cc1csc(SCC(=O)N2CCCC2)n1 | > 4 mM (inactive)
52 | Cc1[nH]c2ccccc2c1C(=O)CSc1ncn[nH]1 | > 4 mM (inactive)
53 | CC(CCC(=O)O)[C@H]1CCC2C3CC[C@@H]4C[C@H](O)CC[C@]4(C)C3CC[C@@]21C (some centres undefined) | > 4 mM (inactive)
54 | O=C(Nc1ccccc1C(F)(F)F)c1cnccn1 | > 4 mM (inactive)
55 | NC(=O)c1ccc(N2CCCCC2)c(N)c1 | > 4 mM (inactive)
56 | CCN1C(=O)c2c(C)nc3ccccc3c2C1=O | > 4 mM (inactive)
57 | COc1ccc(S(N)(=O)=O)cc1 | > 4 mM (inactive)
58 | O=C(NCCO)c1ccccc1I | > 4 mM (inactive)
59 | OCc1cc(-c2cccs2)on1 | > 4 mM (inactive)
